Values quoted from earlier work in patent US20210008209A1, “COMBINATION THERAPY FOR TTR AMYLOIDOSIS” (Corino Therapeutics, Inc., priority 2018, published 2021).

Tests used:
[1] = biological target: T1, TTR native tetramer (Homo sapiens, UniProt P02766); details: humans
T1 construct: host or cells: humans (in vivo)

[2] = test system: TTR cytotoxicity
[3] = test system: TTR native tetramer; details: mice
[4] = biological target: T2, TTR (Homo sapiens, UniProt P02766)
T2 construct: host or cells: human plasma

Cc1ccc(C(=O)c2cc(O)c(O)c([N+](=O)[O-])c2)cc1 [Tolcapone, tolcapone]
stabilization of the native tetramer in vivo [1]: stabilizes the native tetramer
TTR cytotoxicity [2]: inhibits TTR cytotoxicity
stabilization of the native tetramer in vivo [3]: stabilizes the native tetramer
binding to TTR in human plasma [4]: binds specifically to TTR
